Experiments:
[1] = target: Ribosomal protein S6 kinase alpha-3 (Homo sapiens) (UniProt P51812); experiment: Percentage RSK2 activity remaining in the presence of 25uM inhibitor
[2] = target: Serine/threonine-protein kinase PAK 4 (Homo sapiens, UniProt O96013); experiment: Percentage PAK4 activity remaining in the presence of 25uM inhibitor
[3] = target: Serine/threonine-protein kinase Nek6 (Homo sapiens) (UniProt Q9HC98); experiment: Percentage NEK6 activity remaining in the presence of 25uM inhibitor
[4] = target: Myosin light chain kinase, smooth muscle (Homo sapiens, UniProt Q15746); experiment: Percentage SmMLCK activity remaining in the presence of 25uM inhibitor
[5] = target: Mitogen-activated protein kinase 10 (Homo sapiens) (UniProt P53779); experiment: Percentage JNK3 activity remaining in the presence of 25uM inhibitor
[6] = target: Ribosomal protein S6 kinase alpha-1 (Homo sapiens) (UniProt Q15418); experiment: Percentage RSK1 activity remaining in the presence of 25uM inhibitor
[7] = target: T1, Mitogen-activated protein kinase 12 (Homo sapiens) (UniProt P53778); experiment: Percentage p38-gamma activity remaining in the presence of 25uM inhibitor
T1 sequence (whole entry): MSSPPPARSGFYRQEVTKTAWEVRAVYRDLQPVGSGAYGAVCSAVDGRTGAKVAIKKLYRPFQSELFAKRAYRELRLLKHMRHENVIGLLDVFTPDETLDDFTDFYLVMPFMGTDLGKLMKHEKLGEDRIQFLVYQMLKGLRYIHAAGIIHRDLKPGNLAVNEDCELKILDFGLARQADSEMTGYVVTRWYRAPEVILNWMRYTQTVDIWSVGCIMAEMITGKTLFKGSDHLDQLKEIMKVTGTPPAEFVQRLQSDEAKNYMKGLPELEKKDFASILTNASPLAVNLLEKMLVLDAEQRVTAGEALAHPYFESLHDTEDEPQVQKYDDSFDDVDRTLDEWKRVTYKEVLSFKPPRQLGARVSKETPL

[8] = target: T2, Serine/threonine-protein kinase BRSK2 (Homo sapiens) (UniProt Q8IWQ3); experiment: Percentage BRSK2 activity remaining in the presence of 25uM inhibitor
T2 sequence (whole entry): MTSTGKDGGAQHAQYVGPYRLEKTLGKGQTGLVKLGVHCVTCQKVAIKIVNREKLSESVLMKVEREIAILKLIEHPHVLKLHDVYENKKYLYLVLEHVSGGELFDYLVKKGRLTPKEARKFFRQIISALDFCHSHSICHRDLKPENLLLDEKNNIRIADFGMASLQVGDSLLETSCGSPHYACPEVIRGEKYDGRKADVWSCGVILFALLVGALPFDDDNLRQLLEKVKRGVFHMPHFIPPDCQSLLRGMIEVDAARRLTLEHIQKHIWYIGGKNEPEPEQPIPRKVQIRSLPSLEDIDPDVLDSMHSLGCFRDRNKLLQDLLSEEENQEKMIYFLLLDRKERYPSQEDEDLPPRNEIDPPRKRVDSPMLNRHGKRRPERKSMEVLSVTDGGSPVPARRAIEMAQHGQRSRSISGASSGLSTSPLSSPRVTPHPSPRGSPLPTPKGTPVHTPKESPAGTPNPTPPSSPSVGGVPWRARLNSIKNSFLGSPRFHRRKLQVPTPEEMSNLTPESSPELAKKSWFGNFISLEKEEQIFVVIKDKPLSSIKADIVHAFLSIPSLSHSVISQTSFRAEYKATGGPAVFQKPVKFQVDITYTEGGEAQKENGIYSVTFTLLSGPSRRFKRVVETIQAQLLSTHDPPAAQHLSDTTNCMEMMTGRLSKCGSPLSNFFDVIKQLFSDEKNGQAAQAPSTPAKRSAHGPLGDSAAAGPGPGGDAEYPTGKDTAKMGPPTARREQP

[9] = target: MAP kinase-activated protein kinase 2 (Homo sapiens) (UniProt P49137); experiment: Percentage MAPKAPK2 activity remaining in the presence of […]uM inhibitor; conditions: at 25 µM
[10] = target: Rho-associated protein kinase 2 (Homo sapiens) (UniProt O75116); experiment: Percentage ROCK2 activity remaining in the presence of 25uM inhibitor
[11] = target: T3, Dual specificity tyrosine-phosphorylation-regulated kinase 3 (Homo sapiens) (UniProt O43781); experiment: Percentage DYRK3 activity remaining in the presence of 25uM inhibitor
T3 sequence (whole entry): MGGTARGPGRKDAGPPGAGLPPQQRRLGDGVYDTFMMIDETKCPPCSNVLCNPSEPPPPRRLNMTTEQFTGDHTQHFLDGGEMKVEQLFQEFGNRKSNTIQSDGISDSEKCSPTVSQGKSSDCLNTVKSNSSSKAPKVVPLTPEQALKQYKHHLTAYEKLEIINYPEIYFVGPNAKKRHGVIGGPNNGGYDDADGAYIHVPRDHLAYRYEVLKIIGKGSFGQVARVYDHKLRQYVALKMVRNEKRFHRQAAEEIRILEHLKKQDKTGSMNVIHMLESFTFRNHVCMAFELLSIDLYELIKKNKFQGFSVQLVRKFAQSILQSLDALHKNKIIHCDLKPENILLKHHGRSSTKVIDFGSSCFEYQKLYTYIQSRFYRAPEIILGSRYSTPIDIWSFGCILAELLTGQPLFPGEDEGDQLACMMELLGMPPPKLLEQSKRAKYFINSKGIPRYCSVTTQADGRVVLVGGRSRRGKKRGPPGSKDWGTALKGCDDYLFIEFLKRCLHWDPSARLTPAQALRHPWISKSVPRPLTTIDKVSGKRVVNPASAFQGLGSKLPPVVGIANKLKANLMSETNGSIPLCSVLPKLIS

[12] = target: Proto-oncogene tyrosine-protein kinase LCK (Mus musculus) (UniProt P06240); experiment: Percentage Lck activity remaining in the presence of 25uM inhibitor
[13] = target: Tyrosine-protein kinase CSK (Homo sapiens, UniProt P41240); experiment: Percentage CSK activity remaining in the presence of 25uM inhibitor
[14] = target: MAP/microtubule affinity-regulating kinase 3 (Homo sapiens) (UniProt P27448); experiment: Percentage MARK3 activity remaining in the presence of 0.01uM inhibitor; conditions: filed as antagonist

Rho-associated protein kinase 2 (Homo sapiens), sequence (O75116 whole entry, looked up): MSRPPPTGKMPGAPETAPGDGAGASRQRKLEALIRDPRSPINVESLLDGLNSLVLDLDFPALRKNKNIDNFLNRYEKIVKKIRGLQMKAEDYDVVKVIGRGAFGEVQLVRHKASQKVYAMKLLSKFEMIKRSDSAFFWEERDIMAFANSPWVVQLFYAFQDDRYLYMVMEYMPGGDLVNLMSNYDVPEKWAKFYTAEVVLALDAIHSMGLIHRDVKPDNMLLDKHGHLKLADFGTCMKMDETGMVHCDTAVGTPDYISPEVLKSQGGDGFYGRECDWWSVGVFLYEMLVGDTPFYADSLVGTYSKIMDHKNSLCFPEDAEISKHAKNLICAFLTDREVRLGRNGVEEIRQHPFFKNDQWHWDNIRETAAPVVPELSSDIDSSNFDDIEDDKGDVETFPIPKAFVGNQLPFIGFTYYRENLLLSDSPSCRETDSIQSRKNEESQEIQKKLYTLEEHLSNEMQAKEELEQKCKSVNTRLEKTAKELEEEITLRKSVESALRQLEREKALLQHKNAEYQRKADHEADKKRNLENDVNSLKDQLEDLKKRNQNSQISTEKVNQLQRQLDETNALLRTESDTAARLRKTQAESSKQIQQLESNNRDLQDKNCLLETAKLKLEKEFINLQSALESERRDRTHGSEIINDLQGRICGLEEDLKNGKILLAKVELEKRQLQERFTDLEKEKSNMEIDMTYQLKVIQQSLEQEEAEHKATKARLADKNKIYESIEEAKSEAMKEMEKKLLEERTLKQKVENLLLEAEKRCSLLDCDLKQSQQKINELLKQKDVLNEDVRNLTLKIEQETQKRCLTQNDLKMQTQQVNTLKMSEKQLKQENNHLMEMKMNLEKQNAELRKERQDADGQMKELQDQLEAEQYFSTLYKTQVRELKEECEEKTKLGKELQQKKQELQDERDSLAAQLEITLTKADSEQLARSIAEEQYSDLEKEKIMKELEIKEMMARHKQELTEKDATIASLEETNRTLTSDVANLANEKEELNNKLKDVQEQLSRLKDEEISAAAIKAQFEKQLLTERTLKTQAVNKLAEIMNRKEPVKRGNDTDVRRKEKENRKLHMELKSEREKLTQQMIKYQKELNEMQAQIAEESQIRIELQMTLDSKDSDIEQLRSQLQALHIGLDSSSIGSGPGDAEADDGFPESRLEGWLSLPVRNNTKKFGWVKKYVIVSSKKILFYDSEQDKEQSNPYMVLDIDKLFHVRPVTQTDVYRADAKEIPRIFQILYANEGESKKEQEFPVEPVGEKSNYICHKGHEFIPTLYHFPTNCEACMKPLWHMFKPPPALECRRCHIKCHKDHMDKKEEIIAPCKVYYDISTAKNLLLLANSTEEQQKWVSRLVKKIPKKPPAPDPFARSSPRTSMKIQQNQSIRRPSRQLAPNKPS
Ribosomal protein S6 kinase alpha-3 (Homo sapiens), sequence (P51812 whole entry): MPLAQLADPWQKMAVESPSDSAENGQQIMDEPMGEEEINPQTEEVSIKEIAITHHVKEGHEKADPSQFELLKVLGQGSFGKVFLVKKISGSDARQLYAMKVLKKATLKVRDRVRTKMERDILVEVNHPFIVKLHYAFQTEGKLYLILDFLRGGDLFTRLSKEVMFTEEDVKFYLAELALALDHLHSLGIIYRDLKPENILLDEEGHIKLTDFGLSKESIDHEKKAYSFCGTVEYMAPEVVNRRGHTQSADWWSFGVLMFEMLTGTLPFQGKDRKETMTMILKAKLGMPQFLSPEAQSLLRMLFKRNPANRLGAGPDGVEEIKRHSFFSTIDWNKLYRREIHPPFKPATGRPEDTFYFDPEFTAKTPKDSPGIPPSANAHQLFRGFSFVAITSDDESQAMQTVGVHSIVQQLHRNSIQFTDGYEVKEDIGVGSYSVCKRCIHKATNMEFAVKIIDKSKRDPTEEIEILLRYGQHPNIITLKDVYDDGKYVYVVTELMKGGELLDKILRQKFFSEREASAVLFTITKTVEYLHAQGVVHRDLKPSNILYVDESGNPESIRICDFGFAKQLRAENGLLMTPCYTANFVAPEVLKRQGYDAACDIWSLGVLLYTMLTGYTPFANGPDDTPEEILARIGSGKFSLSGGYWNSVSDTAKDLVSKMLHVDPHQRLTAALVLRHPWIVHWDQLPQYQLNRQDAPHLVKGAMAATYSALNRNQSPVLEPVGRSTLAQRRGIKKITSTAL
Myosin light chain kinase, smooth muscle, sequence (Q15746 whole entry): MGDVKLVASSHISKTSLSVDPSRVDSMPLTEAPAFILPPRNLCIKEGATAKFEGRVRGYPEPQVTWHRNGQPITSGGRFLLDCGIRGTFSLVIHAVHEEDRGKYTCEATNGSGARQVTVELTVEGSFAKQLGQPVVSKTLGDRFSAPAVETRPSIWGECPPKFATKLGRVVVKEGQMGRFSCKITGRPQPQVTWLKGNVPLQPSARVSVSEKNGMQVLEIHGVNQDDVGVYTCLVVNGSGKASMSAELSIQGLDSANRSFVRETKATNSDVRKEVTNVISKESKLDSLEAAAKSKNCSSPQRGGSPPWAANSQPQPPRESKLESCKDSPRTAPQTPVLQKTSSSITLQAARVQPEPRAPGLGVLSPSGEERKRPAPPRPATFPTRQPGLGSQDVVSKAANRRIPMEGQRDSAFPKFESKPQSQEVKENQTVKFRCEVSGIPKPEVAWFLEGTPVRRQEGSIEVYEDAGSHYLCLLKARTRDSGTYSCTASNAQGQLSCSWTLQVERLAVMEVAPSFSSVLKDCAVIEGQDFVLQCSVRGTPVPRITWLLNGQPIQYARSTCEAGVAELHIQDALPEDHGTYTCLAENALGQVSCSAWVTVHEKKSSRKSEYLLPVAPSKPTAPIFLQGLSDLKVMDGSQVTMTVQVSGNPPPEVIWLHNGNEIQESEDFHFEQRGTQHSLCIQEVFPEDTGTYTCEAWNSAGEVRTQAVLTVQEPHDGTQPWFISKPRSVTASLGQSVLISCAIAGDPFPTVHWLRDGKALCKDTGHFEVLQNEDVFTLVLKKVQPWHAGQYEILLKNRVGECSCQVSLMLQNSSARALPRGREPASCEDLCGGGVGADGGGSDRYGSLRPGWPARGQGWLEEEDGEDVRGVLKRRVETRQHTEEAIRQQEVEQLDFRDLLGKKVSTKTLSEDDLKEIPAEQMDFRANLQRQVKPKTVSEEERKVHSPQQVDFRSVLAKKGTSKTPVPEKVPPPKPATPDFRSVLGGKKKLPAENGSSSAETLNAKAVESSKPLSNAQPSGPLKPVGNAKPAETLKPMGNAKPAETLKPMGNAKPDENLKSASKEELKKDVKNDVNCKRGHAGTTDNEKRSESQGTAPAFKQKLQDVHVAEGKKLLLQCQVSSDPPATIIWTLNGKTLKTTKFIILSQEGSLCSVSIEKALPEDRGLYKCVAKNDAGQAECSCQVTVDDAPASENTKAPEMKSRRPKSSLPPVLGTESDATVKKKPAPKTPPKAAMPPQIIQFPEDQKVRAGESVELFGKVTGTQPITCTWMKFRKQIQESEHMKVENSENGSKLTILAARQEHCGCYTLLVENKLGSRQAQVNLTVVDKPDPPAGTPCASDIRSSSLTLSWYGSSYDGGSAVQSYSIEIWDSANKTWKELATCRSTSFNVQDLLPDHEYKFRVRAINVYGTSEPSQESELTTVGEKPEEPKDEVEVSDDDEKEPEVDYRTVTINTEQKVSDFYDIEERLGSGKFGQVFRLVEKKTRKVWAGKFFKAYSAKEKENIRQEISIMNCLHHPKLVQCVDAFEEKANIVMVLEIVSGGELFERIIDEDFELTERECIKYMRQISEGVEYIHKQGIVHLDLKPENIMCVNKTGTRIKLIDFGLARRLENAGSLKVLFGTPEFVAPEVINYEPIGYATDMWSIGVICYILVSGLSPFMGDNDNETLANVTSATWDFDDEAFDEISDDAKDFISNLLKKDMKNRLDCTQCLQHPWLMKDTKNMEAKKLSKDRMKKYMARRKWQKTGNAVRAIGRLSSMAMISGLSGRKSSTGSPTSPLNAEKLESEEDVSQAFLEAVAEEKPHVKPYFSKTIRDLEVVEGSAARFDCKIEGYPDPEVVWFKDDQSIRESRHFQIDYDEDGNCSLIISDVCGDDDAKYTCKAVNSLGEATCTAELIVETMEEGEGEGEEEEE
MAP kinase-activated protein kinase 2 (Homo sapiens), sequence (P49137 whole entry, looked up): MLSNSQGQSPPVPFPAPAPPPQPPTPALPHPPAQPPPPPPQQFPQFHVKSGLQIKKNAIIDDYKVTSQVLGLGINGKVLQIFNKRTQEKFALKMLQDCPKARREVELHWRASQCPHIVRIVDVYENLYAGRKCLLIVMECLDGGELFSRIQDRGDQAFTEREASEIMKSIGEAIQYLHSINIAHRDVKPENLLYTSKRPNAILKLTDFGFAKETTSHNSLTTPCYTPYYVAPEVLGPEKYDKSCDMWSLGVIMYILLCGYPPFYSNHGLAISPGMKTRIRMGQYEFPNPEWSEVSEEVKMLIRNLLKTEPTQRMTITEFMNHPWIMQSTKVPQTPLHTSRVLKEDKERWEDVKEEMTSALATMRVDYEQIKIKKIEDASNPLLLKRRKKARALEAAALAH
Serine/threonine-protein kinase PAK 4, sequence (O96013 whole entry, looked up): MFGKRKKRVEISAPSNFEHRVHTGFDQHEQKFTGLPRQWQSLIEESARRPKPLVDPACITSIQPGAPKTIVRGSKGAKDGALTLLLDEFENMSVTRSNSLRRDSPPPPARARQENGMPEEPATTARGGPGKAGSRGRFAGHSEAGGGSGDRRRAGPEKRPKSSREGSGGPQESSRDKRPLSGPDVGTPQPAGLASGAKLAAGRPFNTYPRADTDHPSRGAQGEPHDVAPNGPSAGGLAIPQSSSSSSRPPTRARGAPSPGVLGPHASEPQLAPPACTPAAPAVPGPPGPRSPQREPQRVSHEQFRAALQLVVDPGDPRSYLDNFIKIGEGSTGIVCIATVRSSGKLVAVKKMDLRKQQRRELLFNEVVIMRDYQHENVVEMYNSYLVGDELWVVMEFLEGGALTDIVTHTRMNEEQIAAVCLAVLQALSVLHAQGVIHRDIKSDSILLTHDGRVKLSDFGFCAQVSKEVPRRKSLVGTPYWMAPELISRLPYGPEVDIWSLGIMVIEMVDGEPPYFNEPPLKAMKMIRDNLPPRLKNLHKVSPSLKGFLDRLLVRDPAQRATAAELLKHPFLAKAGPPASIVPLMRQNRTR

Activity ([6]; filed as antagonist)	Activity ([8]; filed as antagonist)	Activity ([11]; filed as antagonist)	Activity [12]	Compound	Activity [1]	Activity [2]	Activity [3]	Activity [4]	Activity [5]	Activity [7]	Activity [9]	Activity [10]	Activity [13]	Activity [14]	Activity [6]	Activity [8]	Activity [11]	Activity ([12]; filed as antagonist)
48%	42%	46%	83%	NCCNS(=O)(=O)c1ccc(Cl)c2ccncc12	63%	88%	90%	84%	103%	102%	85%	65%	79%					
				O=C(NCCCNc1nc(Nc2cccc(NC(=O)N3CCCC3)c2)ncc1I)c1cccs1										12%				
				COc1cc(OC)c(/C=C2/C(=O)Nc3ccccc32)c(OC)c1	89%	84%	95%	70%	93%	93%	88%	78%	81%		87%	88%	89%	49%
				CN[C@@H]1C[C@H]2O[C@@](C)([C@@H]1OC)n1c3ccccc3c3c4c(c5c6ccccc6n2c5c31)C(=O)N[C@H]4O (stereo in doubt)										6%				

Source: ChEMBL document CHEMBL1150976, “The selectivity of protein kinase inhibitors: a further update” (Biochem J, 2007)
